Measurements published in US20120101163A1, “COMPOSITION FOR INHIBITING CANCER METASTASIS” (TAIPEI MEDICAL UNIVERSITY, priority 2010, published 2012).

Tests used:
[1] = biological target: T1, matrix metalloproteinase-2 (Homo sapiens, UniProt P08253); assay: Extracellular inhibition test on enzyme activity of secreted MMP-2 in cultured medium; format: biochemical; details: cultured medium of PMA induced HT 1080, different concentrations, 24 hours
T1 construct: matrix metalloproteinase-2 and matrix metalloproteinase-9 were secreted from the PMA induced HT 1080; endogenous in cells; host or cells: HT 1080 cells induced with 100 nM PMA
T1 sequence (P08253 110-660): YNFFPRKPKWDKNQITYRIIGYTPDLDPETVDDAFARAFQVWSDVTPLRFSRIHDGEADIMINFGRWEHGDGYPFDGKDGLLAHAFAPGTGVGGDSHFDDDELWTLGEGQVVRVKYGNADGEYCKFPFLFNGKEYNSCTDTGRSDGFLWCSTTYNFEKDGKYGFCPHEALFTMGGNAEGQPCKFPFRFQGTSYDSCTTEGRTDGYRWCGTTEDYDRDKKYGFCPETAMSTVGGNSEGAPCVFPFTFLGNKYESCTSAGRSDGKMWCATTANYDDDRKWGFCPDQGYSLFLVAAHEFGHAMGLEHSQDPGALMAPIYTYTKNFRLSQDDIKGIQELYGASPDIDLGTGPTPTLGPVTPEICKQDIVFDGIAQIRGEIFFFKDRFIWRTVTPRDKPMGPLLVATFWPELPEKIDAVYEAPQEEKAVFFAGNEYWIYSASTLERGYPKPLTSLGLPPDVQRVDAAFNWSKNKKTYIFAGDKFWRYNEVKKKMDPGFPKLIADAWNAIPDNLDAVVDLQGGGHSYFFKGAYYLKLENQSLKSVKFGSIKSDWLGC
Protocol: HT 1080 cells with appropriate cell numbers were cultured in 60 mm culturing plates for 12 hours, respectively. After the cells were attached onto the bottom of the plate and formed a monolayer, the medium in the plate was removed. Fresh serum free mediums with different concentrations of a test sample were added to the plates, respectively, and 100 nM PMA was added to each plate to induce the cells to express great quantities of matrix metalloproteinase-2 and matrix metalloproteinase-9, and the plates were placed in a temperature of 37° C. for 24 hours. After centrifugation, each cultured supernatant were saved and mixed with SDS-sample buffer under the same protein contents which were then injected into a 10% SDS-polyacrylamide gel (containing 1 mg/ml gelatin) and then electrophoresed. After the electrophoresis was completed, the gel was taken out and washed with 20 mM Tris-HCl containing 25% isopropanol three times; 10 minutes per time. […]
HT 1080 cells were induced with PMA, and the cultured medium for culturing the HT 1080 cells therefrom was taken out and treated with the different concentrations of L-Glutamic acid γ-hydroxamate (DH) for 24 hours, respectively. After that the enzyme activities of the matrix metalloproteinase-2 and matrix metalloproteinase-9 in the medium were analyzed. […]

[2] = tested on: matrix metalloproteinase-9; assay: Western blot analysis, MMP-9 protein expression in HT 1080 cells; format: cell-based, Human
Protocol: HT 1080 cells with appropriate cell numbers were cultured in 60 mm culturing plates for 12 hours, respectively. After the cells were attached onto the bottom of the plate and formed a monolayer, the medium in the plate was removed. Fresh serum-free mediums with different concentrations of a test drug were added to the plates, respectively, and 100 nM PMA was added to each plate to induce the cells to express great quantities of matrix metalloproteinase-2 and matrix metalloproteinase-9, and the plates were placed in a temperature of 37° C. for 24 hours. A quantitatively cultured supernatant in each plate was centrifuged or protein was extracted from cells in each plate to be quantitated, and then an SDS-sample buffer containing 2-ME was added therein to form a mixture. The mixture was injected into a 10% SDS-polyacrylamide gel […] and then electrophoresed. After electrophoresis was completed, the proteins in the gel were transferred to a PVDF membrane. The PVDF membrane was equilibrated with gelatin-NET at room temperature for 30 minutes. […]

[3] = tested on: HT 1080 cells; assay: Invasion assay (Matrigel transwell); format: cell-based, Human
Protocol: 10. Invasion Assay (Lee et al., 2005; Huang et al., 2005; Park et al., 2005)
HT 1080 cells were used to prepare a cell suspension with an appropriate concentration by a fresh serum free medium and than placed in each upper chamber of each transwell (BD Matrigel™ Invasion Chamber 24-Well Plate 8.0 Micron). Fresh serum containing mediums with different concentrations of a test drug were added to the lower chambers of the transwells, respectively. The transwells were placed in an incubator containing 5% CO2 at 37° C. for 18 hours. After that, the medium in the upper chamber was removed and cells on the upper surface of the membrane of the transwell were wiped by a cotton swab. Finally, the cells were fixed and stained. The calculation for the invasion rate of the cells was:
Ne: Numbers of cells crossing the membrane Nc: Numbers of total cells

`NC(CCC(=O)NO)C(=O)O` [DH, L-Glutamic acid γ-hydroxamate] was tested, and the “direct inhibition of enzyme activity of secreted matrix metalloproteinase-2” value [1] was “no inhibition”, the “protein expression amount of matrix metalloproteinase-9 secreted out of and left in HT 1080 cells” value ([2]; 0.4, 0.8, 1.2, and 1.6, 24 hours, Western blotting) was “all decreased” and the “inhibition rate to the protein expression amount of matrix metalloproteinase-9 of a cancer cell” value ([2]; about 0.1-2 mM, stated as embodiment, 'and/or' MMP-2) was 40-90%. For the same compound, the IC50 ([3]; Homo sapiens, HT-1080, 0.8, 1.6 and 2.4 mM, 18 hours, read-out: IC50 HT 1080 crossing membrane to the lower chamber (invasion)) was 1260 µM and the “inhibition rate to cancer cell invasion” value ([3]; about 0.1-3 mM, stated as embodiment) was 40-85%.
